Laboratory results taken from patent US11413328B2, “Methods for treating inflammatory conditions of the lungs” (priority 2016, dated 2022).
Bridges are numbered along the chain shown (N, C = ends). Where no end group is shown, it is not given here.

How the values were obtained:
[1] = system: microbiota of the intestine; experiment: 16S microbiota analysis, prophylactic defensin treatment in high fat diet model (Example 10); type: in vivo, mice
Text: Mice were housed in trios, 4 cages per group. Feed intake was registered daily just before lights were turned off at […]. Individual mice were subjected to experimental procedures in altered order both group and cage wise. Mice were kept at room temperature under a 12-hour light/dark cycle at SPF standard conditions. The treatment regime is described in FIG. 38. Mice were fed either a high fat diet (HFD) or a low fat (LF) control diet. The HFD contained 4 subgroups; 1 hBD2, 1 HD5, 1 hBD2/HD5 and 1 standard HFD without supplementation of defensins. Defensin concentration was 1.2 mg hBD2 per kg mouse per day. HD5 was given in equimolar concentration to hBD2. […] Microbial analyses were carried out to study the microbiota of the intestine. Longitudinal 16S characterization was conducted on 4 paired samples from 60 mice, 240 samples in total. Each mouse was sampled prior to diet change, 1 week post diet change, 4 weeks post diet change and at termination, thus ensuring a thorough characterization of the faecal microbiota as a result of defensin treatment.

[2] = system: murine house dust mite driven model of allergic asthma; experiment: Cell counts in BALF, prophylactic treatment in HDM asthma model (Example 9); type: in vivo, BALB/c mice; settings: prophylactic oral 0.4 mg/kg TID day 12 to day 14
Experimental: (§1) Female 7-10 weeks old BALB/c mice were randomly allocated into 5 study groups one day prior to study start and subcutaneously (SC) sensitized to house dust mite (100 μg HDM in 200 μL saline plus Freund's complete adjuvant in 0.9% saline). The mice were treated with hBD-2 orally and intranasally respectively at a dose of 1.2 mg/kg/day (0.4 mg/kg TID) starting on day 12 in the morning and continued TID at approximately 6 hours intervals. The last dose was administered on day 14 one hour prior to challenge. The total number of doses were 8 doses or a total of […] hBD-2. Mice were then intranasally (IN) challenged with HDM on day 14 (HDM 25 μg in 50 μL of saline).
Airway inflammation: At 48 hours post challenge, bronchoalveolar lavage was performed washing the lungs with 3 volumes of cold PBS (0.4; 0.3 and 0.3 mL, total 1 mL). Total and differential leucocyte cell counts were determined on an automated haematological analyser Sysmex XT-2000iV.

[3] = system: IL-4, IL-5, IL-8 (KC), IL-9 and IL-13 in lung tissue homogenates; experiment: Cytokine ELISA in lung tissue homogenates, HDM asthma model (Example 3); type: in vivo, BALB/c mice
Experimental: (§2) Treatment regime: Female 7-10 weeks old BALB/c mice randomly allocated into 4 study groups one day prior to study start were subcutaneously (SC) sensitized to house dust mite (100 μg HDM in 200 μL saline plus Freund's complete adjuvant in 0.9% saline). Mice were intranasally (IN) challenged with HDM on day 14 (HDM 25 μg in 50 μL of saline). hBD-2 was administered IN or orally (0.4 mg/kg TID IN; 0.4 mg/kg TID orally, 50 μL phosphate buffered saline) on day 14. The initial dose was administered 60 minutes prior to challenge, and the subsequent doses approximately 6 hours apart.
Lung tissue sampling: Lungs were removed from the thorax, snap frozen in liquid nitrogen and stored frozen at −80 degrees Celsius until analysis of cytokine concentration of IL-4, IL-5, IL-8 (KC), IL-9 and IL-13 by ELISA.
The lungs were exposed and excised by gently opening the thorax and by cutting down either side of the sternum and ribs and trimming back. Lungs from first 6 animals per group were removed from thorax, snap frozen in liquid nitrogen and stored frozen at −80° C. until analysis of cytokine concentration by ELISA.

[4] = system: TNF-α, IL-4, IL-5, IL-6, IL-9, IL-13 and IL-33 in lung homogenate; experiment: Cytokine ELISA in lung homogenate, prophylactic treatment in HDM asthma model (Example 9); type: in vivo, BALB/c mice
Experimental: as §1
Lung sampling for cytokine analysis: After completion of every BAL, lungs were removed from the thorax, snap frozen in liquid nitrogen and stored frozen at −80 degrees Celsius until analysis of cytokine concentration of TNF-α, IL-4, IL-5, IL-6, IL-9, IL-13 and IL-33 in lung homogenate by ELISA.

[5] = system: IL-1β, TNF-α, IL-6, IL-10 and IFNγ in lung tissue homogenates; experiment: Cytokine ELISA in lung tissue homogenates, HDM asthma model (Example 2); type: in vivo, BALB/c mice; settings: vs HDM/vehicle
Experimental: Female 7-10 weeks old BALB/c mice were randomly allocated into 7 study groups one day prior to study start and subcutaneously (SC) sensitized to house dust mite (100 μg HDM in 200 μL saline plus Freunds complete adjuvant in 0.9% saline). Mice were then intranasally (IN) challenged with HDM on day 14 (HDM 25 μg in 50 μL of saline). […] The initial dose was administered 60 minutes prior to challenge, and the subsequent doses approximately 6 hours apart.
Lung sampling for cytokine analysis: After completion of every BAL, lungs were removed from the thorax, snap frozen in liquid nitrogen and stored frozen at −80 degrees Celsius until analysis of cytokine concentration of IL-1β, TNF-α, IL-6, IL-10 and IFNγ by ELISA.

[6] = system: murine house dust mite/Freunds complete adjuvant driven model of allergic asthma; experiment: Lung histopathology (H&E/PAS), HDM asthma model (Example 3); type: in vivo, BALB/c mice; settings: vs HDM challenged vehicle
Experimental: as §2, with “apart.[…] Lungs from other 8 animals per group were inflated in situ with 10% buffered formalin, removed from thorax, placed individually in 10% buffered formalin, paraffin embedded in toto, sectioned and H&E/PAS stained. The paraffin blocks were retained for the IHC analysis. Cellular influx (mononuclears, eosinophils, neutrophils) was assessed semi-quantitatively on H&E stained slides separately for peri-bronchial/bronchiolar and perivascular space as follows: [table] Overall score for inflammation was calculated as sum of all individual scores.” for “apart.”

[7] = prophylactic intranasal, not statistically significantly different from the control

## GIGDPVTCLKSGAICHPVFCPRRYKQIGTCGLPGTKCCKKP (disulfide 8-37, 15-30, 20-38 (inferred)) [hBD-2, human beta defensin 2]
[1]; 1.2 mg hBD2 per kg per day in feed, HD5 equimolar, combination 50% + 50%
  effect on microbial presence / microbial abundance: affected primarily the microbial presence
[1]; prophylactic treatment, p<0.03
  abundance of Barnesiella in the colon: statistically significant increase
[1]; prophylactic treatment, p=0.1
  abundance of Lactobacillaceae in colon: trend towards lower abundance
[2]
  neutrophil counts in BALF: significantly inhibited
[3]; intranasal 0.4 mg/kg TID
  IL-4 level in lung tissue homogenates: significant effects
  IL-5 level in lung tissue homogenates: significant effects
  IL-9 level in lung tissue homogenates: significant effects
[3]; oral 0.4 mg/kg TID
  IL-4 level in lung tissue homogenates: significant effects
  IL-5 level in lung tissue homogenates: significant effects
  IL-9 level in lung tissue homogenates: significant effects
[4]; [7]
  IL-4 in lung homogenate: trend towards lowering
  IL-5 in lung homogenate: trend towards lowering
  IL-6 in lung homogenate: trend towards lowering
  IL-9 in lung homogenate: trend towards lowering
  IL-13 in lung homogenate: trend towards lowering
  TNF-α in lung homogenate: trend towards lowering
[4]; prophylactic oral administration
  cytokine concentrations in lung tissue homogenates (TNF-α, IL-4, IL-5, IL-6, IL-9 and IL-13): complete normalization
[5]; intranasal
  IFN-γ level in lung tissue homogenates: significant effects
  TNF-α level in lung tissue homogenates: not significantly different from the control
[5]; oral (hBD2 0.4 mg/kg TID; dexamethasone 1 mg/kg BID)
  TNF-α level in lung tissue homogenates: significantly reduced
[5]; oral (hBD-2 0.4 mg/kg TID; dexamethasone 1 mg/kg BID)
  IFN-γ level in lung tissue homogenates: significant effects
[6]; intranasal 0.4 mg/kg TID day 14
  increase in histological inflammation of lung tissue: effectively inhibited
[6]; oral 0.4 mg/kg TID day 14
  increase in histological inflammation of lung tissue: effectively inhibited
